Consider two compounds from patent publication US9913838B2, “Methods of treating cancer using compositions comprising perillyl alcohol derivative” (NEONC TECHNOLOGIES INC., priority 2010, dated 2018).

One data set has as its system U251 human glioma cells. The data set is described as follows: MTT cytotoxicity assay, U251 glioma cells. As to conditions: U251; result in words. The source says: In vitro efficacy of the present composition can be determined using methods well known in the art. For example, the cytoxicity of the present monoterpene (or sesquiterpene) and/or the therapeutic agents may be studied by MTT [3-(4,5-dimethylthiazol-2-yl)-2,5-diphenyl tetrazolium bromide] cytotoxicity assay. MTT assay is based on the principle of uptake of MTT, a tetrazolium salt, by metabolically active cells where it is metabolized into a blue colored formazon product, which can be read spectrometrically. J. of Immunological Methods 65: 55 63, 1983. The cytoxicity of the present monoterpene (or sesquiterpene) derivative and/or the therapeutic agents may be studied by colony formation assay. Functional assays for inhibition of VEGF secretion and IL-8 secretion may be performed via ELISA. Cell cycle block by the present monoterpene (or sesquiterpene) derivative and/or the therapeutic agents may be studied by standard propidium iodide (PI) staining and flow cytometry. Invasion inhibition may be studied by Boyden chambers. In this assay a layer of reconstituted basement membrane, Matrigel, is coated onto chemotaxis filters and acts as a barrier to the migration of cells in the Boyden chambers. Only cells with invasive capacity can cross the Matrigel barrier. Other assays include, but are not limited to cell viability assays, apoptosis assays, and morphological assays.
First cytotoxicity assays were carried out after cells were treated with dimethyl-celecoxib (DMC) alone.
Then U87, A172 and U251 cells were treated with dimethyl celecoxib bisPOH carbamate (POH−DMC) (e.g., synthesized by the method in Example 1), and the MTT cytotoxicity assays performed (FIG. 2).
First cytotoxicity assays were carried out after cells were treated with temozolomide (TMZ) alone, the standard alkylating agent used in the treatment of malignant gliomas.
Then TMZ-resistant glioma cell lines U87, A172 and U251 cells were treated with TMZ-POH (e.g., synthesized by the method in Example 3).
To compare the cytotoxicity of Rolipram POH Carbamate (POH-Rolipram) (e.g., synthesized by the method in Example 5) with rolipram, […] inducing differentiation and apoptosis in glioma cells, A172, U87, U251 and LN229 human glioma cells were treated with either POH-Rolipram or rolipram for 48 hours.
MTT cytotoxicity assays were carried out after cells were treated with the TMZ-POH conjugate. The MTT cytotoxicity assays were carried out as described in Chen T C, et al. Green tea epigallocatechin gallate enhances therapeutic efficacy of temozolomide in orthotopic mouse glioblastoma models. Cancer Lett. 2011 Mar. 28; 302(2):100-8.
In general terms: Tetrazolium assays rely on reduction of a dye to a coloured formazan, in cell work by metabolically active cells.

For data set [1], the system named is TMZ resistant (U251TR) U251 cells. As to the kind of experiment: Colony forming assay, TMZ resistant U251TR cells. The class given is cell-based, human. As to conditions: in words. On the procedure:
Colony forming assays were carried out after cells were treated with TMZ alone, POH alone, and the TMZ-POH conjugate. […] Cancer Lett. 2011 Mar. 28; 302(2):100-8.

In another data set the test system is MDA-MB-231. The data set is described as follows: cells. As to conditions: for reduction of colony formation: 10 μM (each), 48 hours; for IC50: Homo sapiens, MDA-MB-231, 48 h, read-out: IC50 (concentration required to decrease colony formation by 50%). The protocol:
(§1) Depending on the cell line (and plating efficiency), 200-350 cells were seeded into each well of a 6-well plate. […] Thereafter, the drugs were removed, fresh growth medium was added, and the cells were kept in culture undisturbed for 12-16 days, during which time the surviving cells spawned colonies of descendants. Colonies (defined as groups of >50 cells) were visualized by staining for 4 hours with 1% methylene blue (in methanol), and then were counted.
In the case of O6-BG treatment, cells were pretreated with 10 μM O6-BG for one hour before addition of TMZ or TMZ-POH. After 24 hours, another 10 μM O6-BG was added to the medium. Another 24 hours later, drug-laced medium was removed, and fresh medium without drugs was added. Thereafter, cells remained undisturbed until staining with methylene blue.
The cytotoxic potency of TMZ-POH, was analyzed by colony formation assay (CFA) in a variety of human breast cancer cell lines and compared to the cytotoxicity of TMZ. We used estrogen receptor positive cells MCF7 and T47D, the triple-negative lines MDA-MB-231, MDA-MB-468, and HCC-1937, and a brain-seeking variant of the 231 cell line, MDA-MB-231-br.
Thus, we tested whether simply mixing the two compounds TMZ and POH could mimic the effects of the TMZ-POH conjugate. MDA-MB-231 cells were treated with the individual compounds (TMZ-POH, TMZ or POH) alone, or with an equimolar mix of TMZ plus POH, and cell survival was analyzed by CFA.

The test system of a further data set is MGMT. As to the kind of experiment: Western blot of MGMT protein levels in MDA-MB-468 cells. As to conditions: in words. The class given is cell-based, human. On the procedure: In FIG. 21C, MDA-MB-468 cells were treated with the indicated concentrations of TMZ-POH, TMZ, or O6-BG for 17 hours before harvest of cellular lysates. vh.=cells treated with vehicle only.
(§2) Total cell lysates were analyzed by Western blot analysis as described in P. Pyrko et al. Downregulation of survivin expression and concomitant induction of apoptosis by celecoxib and its non-cyclooxygenase-2-inhibitory analog, dimethyl-celecoxib (DMC), in tumor cells in vitro and in vivo. Mol Cancer 5 (2006) 19. The primary antibodies were purchased from Cell Signaling Technology (Beverly, Mass.) or Santa Cruz Biotechnology, Inc. (Santa Cruz, Calif.) and used according to the manufacturers' recommendations. All immunoblots were repeated at least once to confirm the results.
The major cytotoxic DNA lesion set by TMZ is methylation of O6-guanine, and it is well known that removal of this methyl group by MGMT leads to rapid degradation of the DNA repair protein.

For data set [2] the following is noted: in vitro and in vivo; cited from earlier work.
The subject of data set [3] is TMZ resistant cells (U251TR). As to the kind of experiment: MTT cytotoxicity assay, U251TR cells. The class given is cell-based, human. As to conditions: in words. The source says: (§3) Cancer Lett. 2011 Mar. 28; 302(2):100-8.
The next data set deals with normal astrocytes. The data set is described as follows: MTT cytotoxicity assay, normal astrocytes. The settings on record: in words. The class given is cell-based.
Description: as §3

For the next data set, the system named is CHOP. As to the kind of experiment: Western blot of ER stress in TMZ sensitive and resistant U251 glioma cells. It counts as cell-based, human. The protocol:
Western blots were performed after TMZ sensitive and resistant glioma cells were treated with the TMZ-POH conjugate for 18 hr.

For data set [4], the system named is γ-H2AX. The data set is described as follows: Western blot of DNA damage marker in MDA-MB-231 cells. The class given is cell-based, human. The settings on record: MDA-MB-231, 50 μM, time course of 72 hours; in words. On the procedure: (§4) Actin was used as a loading control.
as §2
(In general: A western blot detects proteins with antibodies after separation by electrophoresis.)

The subject of data set [5] is γ-H2AX. As to the kind of experiment: Western blot of DNA damage marker in MCF7 cells. As to conditions: MCF-7, 50 μM, 48 hours, in words. The class given is cell-based, human. The protocol: as §4, §2
In a further data set the test system is MGMT-negative cell lines. The data set is described as follows: Colony formation assay, MGMT-negative breast cancer cell lines (summary). It counts as cell-based, human. The protocol: as §1
Data set [6] has as its system MGMT-positive breast cancer cell lines. As to the kind of experiment: Colony formation assay, MGMT-positive breast cancer cell lines (summary). The class given is cell-based. The settings on record: Homo sapiens; range over the three MGMT-positive lines. On the procedure: as §1
A short description of a further data set: Lipophilicity. The class given is physicochemical. The settings on record: data not shown; in words.

“Also recorded” adds a separate entry of the source.

Regarding `Cn1nnc2c(C(N)=O)ncn2c1=O` [TMZ, temozolomide, reference compound], the “cytotoxicity (MTT assay)” value with U251 human glioma cells is “minimal cytotoxicity”. In [1], the “cytotoxicity (colony forming assay)” value is recorded as “minimal cytotoxicity”. Moreover, the “reduction of colony formation” value in the data set on MDA-MB-231 (MDA-MB-231) is reported as “about 50%”. Further, the IC50 in the data set with MDA-MB-231 is 9.9 µM. Besides, the MGMT protein levels result in the data set with MGMT (MDA-MB-468, 50 μM, 17 hours) was “no effect”. In addition, the half-life in [2] is 1 to 2 h.
On to `C=C(C)[C@@H]1CC=C(COC(=O)NC(=O)c2ncn3c(=O)n(C)nnc23)CC1` [TMZ-POH], for which the “cytotoxicity (MTT assay)” value in the data set with U251 human glioma cells was “substantially higher kill rates; also recorded: demonstrated cytotoxicity”; in data set [3] it was “demonstrated cytotoxicity”; in the data set with normal astrocytes, “not towards normal astrocytes; also recorded: did not induce significant cytotoxicity”. Also, the “cytotoxicity (colony forming assay)” value in [1] is listed as “demonstrated cytotoxicity; also recorded: substantially greater potency compared to POH alone”. For the same compound, in the data set with CHOP (18 hr treatment), the “concentration at which activation of the proapoptic protein CHOP was shown (as low as)” value stood at 60 µM. In addition, the “ER stress (ERS)” value in the data set on CHOP (TMZ sensitive and resistant U251, 18 hr, in words) is “induces ER stress”. In addition, in the data set on MDA-MB-231 (MDA-MB-231), the “reduction of colony formation” value was “about 95%”. Moreover, the IC50 in the data set with MDA-MB-231 was 2.3 µM; with MGMT-negative cell lines (Homo sapiens, range over MGMT-negative cell lines) it was 1200 to 4600 nM; in [6], 31 to 33 µM. In addition, in the data set on MDA-MB-231 (fold increase in potency of TMZ-POH compared to TMZ, MDA-MB-231), the “Differential (−fold)” value was 4.3 −fold. Also, the MGMT protein levels entry with MGMT (MDA-MB-468, 50 μM, 17 hours) was “significant decrease”; with MGMT (MDA-MB-468, 17 hours) it was “affects MGMT levels more potently than TMZ”. Also, the “levels of γ-H2AX” value with γ-H2AX [4] is given as “substantially increased levels of γ-H2AX; also recorded: much stronger as compared to TMZ”; in the data set on γ-H2AX [5] (pre-treated with O6-BG (30 μM)), “increased levels of γ-H2AX became readily apparent”. Also, the “phosphorylation of H2AX” value in the data set with γ-H2AX [5] (without O6-BG) is listed as “no increased phosphorylation of H2AX”. Besides, in the data set on MGMT-negative cell lines (MGMT-negative cells), the “active in the range of” value is 1 to 5 µM. Moreover, in “Lipophilicity”, the lipophilicity entry is recorded as “increased over TMZ”.

One may read the half-life as how long it takes for the measured level to halve.
